Test results: publication PMC5341858, “Molecular regulation of apoptotic machinery and lipid metabolism by mTORC1/mTORC2 dual inhibitors in preclinical models of HER2+/PIK3CAmut breast cancer” (Oncotarget, 2016)

What was measured:
MDA-MB-231 cells = experiment: Glucose-to-lipid conversion (de novo lipid synthesis); type: cell-based; conditions: similar treatment, 4 h saturating dose
Procedure: (§1) Cellular glucose-to-lipid conversion was measured as described. Briefly, cells were pretreated with inhibitors for 2 h, incubated for 2 h in medium containing 2 μCi/mL D-[1-14C] glucose (PerkinElmer, NEC043X001MC). Total lipids were extracted twice with 300 μL hexane:isopropanol (3:2; vol:vol). Cell debris was carefully removed by centrifugation at 14,000 rpm for 5 min using a microcentrifuge. Radioactive lipids were dried, redissolved with 100 μL of chloroform and determined by liquid scintillation counting. A duplicate assay plate without radioactive glucose label was used to count the number of cells per treatment. Glucose to total lipid conversion rate is the radioactive counts from the extracted lipid normalized by the number of cells per hour of ^14C-glucose incubation. For acetyl-CoA assay, cells grown in 96-well plates were washed and lysed in 40 μL/well using lysis buffer. Cell lysates were transferred to V-bottom plates, cleared by centrifugation. 30 μL of the cleared cell lysates were subjected to acetyl-CoA measurement using an acetyl-CoA assay kit (Sigma, MAK-039) following manufacturer's assay manual. Duplicate assay plates were used to count the number of cells per treatment for normalization in determining cellular acetyl-CoA levels.

MDA-MB-453 cells [1] = experiment: as above; type: cell-based; conditions: 4 h, saturating dose (5 μM MTI-31, 1 μM rapamycin)
Procedure: as §1

MDA-MB-453 cells [2] = experiment: Total cellular acetyl-CoA level; type: cell-based; conditions: 24 h
Procedure: as §1

[3] = test system: P-S6 and P-AKT in MDA-MB-453 tumors; experiment: mTOR biomarkers in tumor tissue (immunoblot); type: in vivo, mice
Procedure: Animal studies were performed under protocols approved by Institutional Animal Care and Use Committee (IACUC) of Fudan University. Balbc female nude mice bearing MDA-MB-453, HCC1806 or 786-O tumors were staged at initial tumor volume of 150-200 mm^3 and randomized into treatment groups (n=/>8). […] Lapatinib and Sunitinib were formulated in 0.5% hydroxypropyl methyl cellulose (HPMC)-0.2% tween-80 as homogeneous suspension. All test agents were prepared twice weekly. Mice were dosed orally once daily (qd). Tumor growth inhibition rate (TGI) was calculated: TGI=[1-(Vt-Vi)/(Vc-Vi)]×100, where Vt: tumor volume of drug treated group, Vc: tumor volume of vehicle control group, Vi: initial tumor volume at staging. For biomarker studies, frozen tumors were made lysates and immunoblotted as previously described. For detecting apoptosis, tumors were excised, fixed in 4% formalin for 24 h and embedded in paraffin. […] The slides were blocked in Tris buffered saline with 5% BSA-0.3 M glycine and reacted with anti-CPT1A (Proteintech #15184-1-AP) or anti-P-ACL S455 (Abcam #59297) and detected with peroxidase-conjugated secondary antibody (Jackson # 111-035-003). […] Staining levels were analyzed on the basis of mean optical density quantified by software image pro plus 6.0.

For `CNC(=O)c1cccc(-c2ccc3c(N4C5CCC4COC5)nc(N4CCOC[C@@H]4C)nc3n2)c1` [MTI-31], the “effect on de novo lipid synthesis” value (MDA-MB-231 cells) was “did not significantly reduce lipid synthesis”, the “suppression of de novo lipid synthesis (14C-glucose-to-lipid conversion rate)” value (MDA-MB-453 cells [1]) was 70% and the “reduction in acetyl-CoA” value (MDA-MB-453 cells [2]) was 67%. For the same compound, the “P-S6 and P-AKT levels in tumor tissue” value ([3]; 5 mg/kg oral qd) was “significantly reduced” and the “P-S6 and P-AKT levels in tumor tissue” value ([3]; 10 mg/kg oral qd) was “nearly complete suppression”.
